The record followed here is patent publication US20220008391A1, “NOVEL COMPOUNDS FOR CONTROLLING ARTHROPODS” (Bayer Animal Health GmbH, priority 2018, published 2022).

The data set in a line: Measurement of solubility in buffer at pH 6.5. Particulars: aqueous buffer, kinetic from dmso stock; PBS buffer pH 6.5, shaken 24h at rt, LC-MSMS; read-out: Solubility of example compounds at pH 6.5. Type of data set: physicochemical. Here is the method:
Measurement of Solubility in Buffer at pH 6.5 2-4 mg of the test compound are dissolved in DMSO to reach a concentration of 50 g/L (solution A). To 10 μl of this solution 960 μl PBS buffer pH 6.5 are added (final concentration: 515 μg/1); the mixture is shaken for 24h at rt in a 96 well plate. An aliquot is centrifuged at 42000 rpm für 30 min. The supernatant is diluted with acetonitrile/water (8:2) 1:10 and 1:1000 resp. This diluted samples are analyzed by LC-MSMS. Calibration: 10 μl of solution A are diluted with 823 μl DMSO (final concentration: 600 μg/ml), which is further diluted with acetonitrile/water 8:2 by a factor of 100 (provides solution B). The calibration curve is obtained from solution B by further diluting with acetonitrile/water 8:2 with target concentrations of 1.2-12-60-600 ng/ml and injecting these four solutions for MS measurement. PBS-Puffer: 6.18 g sodium chloride and 3.96 g sodium dihydrogen phosphate are dissolved in 1 L aqua dist., the pH is adjusted to 6.5 with 1N sodium hydroxide. The following conditions were used for quantification: Autosampler without auto inject ahead setting, column: Waters OASIS HLB, 2,1×20 mm, 25μ, column temperature: 30° C., flow rate: 2.5 mL/min, injected volume: 2 μl, Splitter (before MS) 1:20.

Molecules are shown by their SMILES. Converted amounts (≈) assume the structure as drawn.

Consider `Cn1nc(C(F)(F)C(F)(F)F)c(C(F)(F)F)c1-n1cc(-c2ccc(Cl)c(C(=O)N(COC(=O)OCCCC(=O)O)C3(C#N)CC3)c2)cn1` [Example 20, 4-[({[{2-Chloro-5-[2′-methyl-5′-(pentafluoroethyl)-4′-(trifluoromethyl)-2′H-[1,3′-bipyrazol]-4-yl]benzoyl}(1-cyanocyclopropyl)amino]methoxy}carbonyl)oxy]butanoic Acid], for which the solubility (as a rule, how much of the substance goes into solution per volume) at 24 h turned out to be 0.212 mg/mL (≈ 297 µM). With `N#CC1(N(COC(=O)O[C@H]2CC[C@@H](OC(=O)CCC(=O)O)CC2)C(=O)c2cc(-c3cnn(-c4c(Cl)cc(C(F)(C(F)(F)F)C(F)(F)F)cc4OC(F)(F)F)c3)ccc2Cl)CC1` [Example 15, 4-({cis-4-[({[(2-chloro-5-{1-[2-chloro-4-(1,1,1,2,3,3,3-heptafluoropropan-2-yl)-6-(trifluoromethoxy)phenyl]-1H-pyrazol-4-yl}benzoyl)(1-cyanocyclopropyl)amino]methoxy}carbonyl)oxy]cyclohexyl}oxy)-4-oxobutanoic Acid], the solubility at 24 h is 0.001 mg/mL (≈ 1.09 µM). As for `Cn1nc(C(F)(F)C(F)(F)F)c(C(F)(F)F)c1-n1cc(-c2ccc(Cl)c(C(=O)N(COC(=O)O[C@H]3CC[C@@H](OC(=O)/C=C/C(=O)O)CC3)C3(C#N)CC3)c2)cn1` [Example 32, Cis-(2E)-4-({-4-[({[{2-Chloro-5-[2′-methyl-5′-(pentafluoroethyl)-4′-(trifluoromethyl)-2′H-[1,3′-bipyrazol]-4-yl]benzoyl}(1-cyanocyclopropyl)amino]methoxy}carbonyl)oxy]cyclohexyl}oxy)-4-oxobut-2-enoic Acid], the solubility at 24 h is 0.041 mg/mL (≈ 49.8 µM). Take `Cn1nc(C(F)(F)C(F)(F)F)c(C(F)(F)F)c1-n1cc(-c2ccc(Cl)c(C(=O)N(COC(=O)OCC(C)(C)COC(=O)/C=C/C(=O)O)C3(C#N)CC3)c2)cn1` [Example 39, (12E)-1-{2-chloro-5-[2′-methyl-5′-(pentafluoroethyl)-4′-(trifluoromethyl)-2′H-[1,3′-bipyrazol]-4-yl]phenyl}-2-(1-cyanocyclopropyl)-8,8-dimethyl-1,5,11-trioxo-4,6,10-trioxa-2-azatetradec-12-en-14-oic Acid]: the solubility at 24 h was determined as 0.043 mg/mL (≈ 53 µM). With `N#CC1(N(COC(=O)O[C@H]2CC[C@@H](C(=O)O)CC2)C(=O)c2cc(-c3cnn(-c4c(Cl)cc(C(F)(C(F)(F)F)C(F)(F)F)cc4OC(F)(F)F)c3)ccc2Cl)CC1` [Example 17, Cis-4-[({[(2-Chloro-5-{1-[2-chloro-4-(1,1,1,2,3,3,3-heptafluoropropan-2-yl)-6-(trifluoromethoxy)phenyl]-1H-pyrazol-4-yl}benzoyl)(1-cyanocyclopropyl)amino]methoxy}carbonyl)oxy]cyclohexane-1-carboxylic Acid], the solubility at 24 h was 0.002 mg/mL (≈ 2.35 µM). The figure for `N#CC1(N(COC(=O)O[C@H]2CC[C@H](C(=O)O)CC2)C(=O)c2cc(-c3cnn(-c4c(Cl)cc(C(F)(C(F)(F)F)C(F)(F)F)cc4OC(F)(F)F)c3)ccc2Cl)CC1` [Example 18, Trans-4-[({[(2-chloro-5-{1-[2-chloro-4-(1,1,1,2,3,3,3-heptafluoropropan-2-yl)-6-(trifluoromethoxy)phenyl]-1H-pyrazol-4-yl}benzoyl)(1-cyanocyclopropyl)amino]methoxy}carbonyl)oxy]cyclohexane-1-carboxylic Acid] is 0.003 mg/mL (≈ 3.53 µM). Consider `Cn1nc(C(F)(F)C(F)(F)F)c(C(F)(F)F)c1-n1cc(-c2ccc(Cl)c(C(=O)N(COC(=O)O[C@H]3CC[C@H](C(=O)O)CC3)C3(C#N)CC3)c2)cn1` [Example 24, Trans-4-[({[{2-Chloro-5-[2′-methyl-5′-(pentafluoroethyl)-4′-(trifluoromethyl)-2′H-[1,3′-bipyrazol]-4-yl]benzoyl}(1-cyanocyclopropyl)amino]methoxy}carbonyl)oxy]cyclohexane-1-carboxylic Acid], for which the solubility at 24 h was 0.057 mg/mL (≈ 75.7 µM).

Take `N#CC1(N(COC(=O)O[C@H]2CCC[C@@H]2OC(=O)CCC(=O)O)C(=O)c2cc(-c3cnn(-c4c(Cl)cc(C(F)(C(F)(F)F)C(F)(F)F)cc4OC(F)(F)F)c3)ccc2Cl)CC1` [Example 11, 4-({(1S,2S)-2-[({[(2-chloro-5-{1-[2-chloro-4-(1,1,1,2,3,3,3-heptafluoropropan-2-yl)-6-(trifluoromethoxy)phenyl]-1H-pyrazol-4-yl}benzoyl)(1-cyanocyclopropyl)amino]methoxy}carbonyl)oxy]cyclopentyl}oxy)-4-oxobutanoic Acid]: the solubility at 24 h came to 0.002 mg/mL (≈ 2.2 µM). Under `Cn1nc(C(F)(F)C(F)(F)F)c(C(F)(F)F)c1-n1cc(-c2ccc(Cl)c(C(=O)N(COC(=O)OCC(=O)O)C3(C#N)CC3)c2)cn1` [Example 30, [({[{2-Chloro-5-[2′-methyl-5′-(pentafluoroethyl)-4′-(trifluoromethyl)-2′H-[1,3′-bipyrazol]-4-yl]benzoyl}(1-cyanocyclopropyl)amino]methoxy}carbonyl)oxy]acetic Acid] stands 0.398 mg/mL (≈ 581 µM). On to `N#CC1(N(COC(=O)O[C@H]2CCC[C@H]2OC(=O)/C=C/C(=O)O)C(=O)c2cc(-c3cnn(-c4c(Cl)cc(C(F)(C(F)(F)F)C(F)(F)F)cc4OC(F)(F)F)c3)ccc2Cl)CC1` (relative stereo) [Example 6, (2E)-4-({(rel 1R,2S)-2-[({[(2-chloro-5-{1-[2-chloro-4-(1,1,1,2,3,3,3-heptafluoropropan-2-yl)-6-(trifluoromethoxy)phenyl]-1H-pyrazol-4-yl}benzoyl)(1-cyanocyclopropyl)amino]methoxy}carbonyl)oxy]cyclopentyl}oxy)-4-oxobut-2-enoic Acid], for which the solubility at 24 h stood at 0.004 mg/mL (≈ 4.42 µM). The figure for `Cn1nc(C(F)(F)C(F)(F)F)c(C(F)(F)F)c1-n1cc(-c2ccc(Cl)c(C(=O)N(COC(=O)O[C@H]3CCC[C@@H]3OC(=O)/C=C/C(=O)O)C3(C#N)CC3)c2)cn1` [Example 42, (2E)-4-({(1S,2S)-2-[({[{2-Chloro-5-[2′-methyl-5′-(pentafluoroethyl)-4′-(trifluoromethyl)-2′H-[1,3′-bipyrazol]-4-yl]benzoyl}(1-cyanocyclopropyl)amino]methoxy}carbonyl)oxy]cyclopentyl}oxy)-4-oxobut-2-enoic Acid] is 0.038 mg/mL (≈ 47 µM); for `Cn1nc(C(F)(F)C(F)(F)F)c(C(F)(F)F)c1-n1cc(-c2ccc(Cl)c(C(=O)N(COC(=O)O[C@@H]3CCC[C@H]3OC(=O)CCC(=O)O)C3(C#N)CC3)c2)cn1` [Example 38, 4-({(1R,2R)-2-[({[{2-Chloro-5-[2′-methyl-5′-(pentafluoroethyl)-4′-(trifluoromethyl)-2′H-[1,3′-bipyrazol]-4-yl]benzoyl}(1-cyanocyclopropyl)amino]methoxy}carbonyl)oxy]cyclopentyl}oxy)-4-oxobutanoic Acid] it is 0.037 mg/mL (≈ 45.6 µM). `Cn1nc(C(F)(F)C(F)(F)F)c(C(F)(F)F)c1-n1cc(-c2ccc(Cl)c(C(=O)N(COC(=O)OCC(C)(C)C(=O)O)C3(C#N)CC3)c2)cn1` [Example 21, 3-[({[{2-Chloro-5-[2′-methyl-5′-(pentafluoroethyl)-4′-(trifluoromethyl)-2′H-[1,3′-bipyrazol]-4-yl]benzoyl}(1-cyanocyclopropyl)amino]methoxy}carbonyl)oxy]-2,2-dimethylpropanoic Acid]: the solubility at 24 h amounted to 0.136 mg/mL (≈ 187 µM). In the case of `CC(C)(COC(=O)CCC(=O)O)COC(=O)OCN(C(=O)c1cc(-c2cnn(-c3c(Cl)cc(C(F)(C(F)(F)F)C(F)(F)F)cc3OC(F)(F)F)c2)ccc1Cl)C1(C#N)CC1` [Example 5, 1-(2-Chloro-5-{1-[2-chloro-4-(1,1,1,2,3,3,3-heptafluoropropan-2-yl)-6-(trifluoromethoxy)phenyl]-1H-pyrazol-4-yl}phenyl)-2-(1-cyanocyclopropyl)-8,8-dimethyl-1,5,11-trioxo-4,6,10-trioxa-2-azatetradecan-14-oic Acid], the solubility at 24 h stood at 0.002 mg/mL (≈ 2.2 µM).

`N#CC1(N(COC(=O)OCC2(C(=O)O)CC2)C(=O)c2cc(-c3cnn(-c4c(Cl)cc(C(F)(C(F)(F)F)C(F)(F)F)cc4OC(F)(F)F)c3)ccc2Cl)CC1` [Example 35, 1-{[({[(2-chloro-5-{1-[2-chloro-4-(1,1,1,2,3,3,3-heptafluoropropan-2-yl)-6-(trifluoromethoxy)phenyl]-1H-pyrazol-4-yl}benzoyl)(1-cyanocyclopropyl)amino]methoxy}carbonyl)oxy]methyl}cyclopropane-1-carboxylic Acid]: the solubility at 24 h worked out at 0.008 mg/mL (≈ 9.74 µM). The figure for `N#CC1(N(COC(=O)O[C@H]2CC[C@@H](OC(=O)/C=C/C(=O)O)CC2)C(=O)c2cc(-c3cnn(-c4c(Cl)cc(C(F)(C(F)(F)F)C(F)(F)F)cc4OC(F)(F)F)c3)ccc2Cl)CC1` [Example 14, (2E)-4-({cis-4-[({[(2-chloro-5-{1-[2-chloro-4-(1,1,1,2,3,3,3-heptafluoropropan-2-yl)-6-(trifluoromethoxy)phenyl]-1H-pyrazol-4-yl}benzoyl)(1-cyanocyclopropyl)amino]methoxy}carbonyl)oxy]cyclohexyl}oxy)-4-oxobut-2-enoic Acid] is 0.019 mg/mL (≈ 20.7 µM); for `N#CC1(N(COC(=O)O[C@H]2CC[C@H](OC(=O)/C=C/C(=O)O)CC2)C(=O)c2cc(-c3cnn(-c4c(Cl)cc(C(F)(C(F)(F)F)C(F)(F)F)cc4OC(F)(F)F)c3)ccc2Cl)CC1` [Example 16, (2E)-4-({trans-4-[({[(2-chloro-5-{1-[2-chloro-4-(1,1,1,2,3,3,3-heptafluoropropan-2-yl)-6-(trifluoromethoxy)phenyl]-1H-pyrazol-4-yl}benzoyl)(1-cyanocyclopropyl)amino]methoxy}carbonyl)oxy]cyclohexyl}oxy)-4-oxobut-2-enoic Acid] it is 0.002 mg/mL (≈ 2.18 µM).
